This note sets out measurements from ChEMBL document CHEMBL1201862, “PubChem BioAssay data set” (2004).

Some test systems named below: U-251; SK-MEL-28; A498; OVCAR-8; HL-60; NCI-H522; TK-10; NCI/ADR-RES; NCI-H226; COLO 205; MDA-MB-231; OVCAR-5; NCI-H460; A549; 786-0; CAKI-1; SR; K562; SNB-19; OVCAR-3.
Common to all, as to test: NCI-60 cell line screen, 48 h

SMILES strings stand for the structures.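 Each compound was tested at five concentrations against cells in 96-well plates for 48 hours. GI50 = concentration required for 50% inhibition of growth.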 Activity calls are given as the source filed them. No stated cut-off is given here; in the data, active = GI50 up to about 1.1 µM and inactive = higher.

For `O=C(NCCc1ccccc1)c1c(O)nc2ccccc2c1O`, the GI50 in the test on U-251, in the test on SK-MEL-28, with A498, with OVCAR-8, in the test with HL-60 and in the test with NCI-H522 was > 100 µM (inactive) throughout. Besides, the GI50 with TK-10, with NCI/ADR-RES, in the test with NCI-H226, in the test on COLO 205, in the test on MDA-MB-231 and with OVCAR-5 was > 100 µM (inactive) each time. The GI50 in the test on NCI-H460, with A549, in the test with 786-0, in the test on CAKI-1, in the test with SR and in the test on K562 was > 100 µM (inactive) in each case. For the same molecule, the GI50 with SNB-19 and in the test with OVCAR-3 was > 100 µM (inactive) each time.
In the case of `O=C1NC(c2ccccc2Cl)Nc2ccccc21` (stereo not given), the GI50 in the test with U-251 is 10.4 µM (inactive); in the test on SK-MEL-28 it was 24.1 µM (inactive); in the test with A498 it was 30.8 µM (inactive); in the test with OVCAR-8 it was 38.6 µM (inactive); in the test with HL-60, 2.91 µM (inactive); in the test with NCI-H522, 12.3 µM (inactive). In addition, the GI50 in the test on TK-10 is > 53.1 µM (inactive); with NCI/ADR-RES, 5.61 µM (inactive); with NCI-H226, 41.8 µM (inactive); with COLO 205, 8.49 µM (inactive); with MDA-MB-231, 33.2 µM (inactive); in the test on OVCAR-5 it was > 100 µM (inactive). The GI50 with NCI-H460 is 13.9 µM (inactive); in the test on A549, 32.5 µM (inactive); in the test with 786-0, 28.4 µM (inactive); in the test with CAKI-1 it was 5.71 µM (inactive); with SR, 4.07 µM (inactive); with K562, 3.77 µM (inactive). The GI50 is 15.1 µM (inactive) with SNB-19 and 7.38 µM (inactive) in the test with OVCAR-3.
Regarding `Nc1ccc2c3[nH]c4cc(N)ccc4cc-3nc2c1`, the GI50 with U-251 is 0.156 µM (active); with SK-MEL-28 it was 0.0746 µM (active); in the test with A498, 0.138 µM (active); in the test on OVCAR-8, 0.151 µM (active); in the test on HL-60, 0.273 µM (active); in the test with NCI-H522, 22.6 µM (inactive). Also, the GI50 in the test with TK-10 was 2.09 µM (inactive); in the test with NCI/ADR-RES, 0.243 µM (active); in the test with NCI-H226 it was 0.174 µM (active); in the test on COLO 205 it was 0.18 µM (active); in the test on MDA-MB-231 it was 0.455 µM (active); with OVCAR-5, 0.291 µM (active). For the same molecule, the GI50 is 0.0775 µM (active) in the test with NCI-H460; 0.286 µM (active) in the test with A549; 0.121 µM (active) in the test with 786-0; 0.203 µM (active) in the test with CAKI-1; 0.0535 µM (active) with SR; 5.07 µM (inactive) in the test on K562. Also, the GI50 is 0.209 µM (active) in the test with SNB-19 and 0.349 µM (active) with OVCAR-3.
On to `CCCCCCN(CCCCCC)CCC(=O)c1ccc2cc(Br)c3ccccc3c2c1`, for which the GI50 in the test with U-251 is 36.2 µM (inactive); in the test with SK-MEL-28, 77.1 µM (inactive); in the test with A498 it was 36.3 µM (inactive); with OVCAR-8, 31.7 µM (inactive); in the test on HL-60, 10.8 µM (inactive); in the test with NCI-H522 it was 25.5 µM (inactive). For the same molecule, the GI50 in the test with TK-10 is 26.4 µM (inactive); with NCI/ADR-RES it was 48.5 µM (inactive); with NCI-H226, 69.7 µM (inactive); in the test with COLO 205, 22.6 µM (inactive); in the test on MDA-MB-231 it was 26.7 µM (inactive); with OVCAR-5 it was 78 µM (inactive). Moreover, the GI50 in the test with NCI-H460 was 30.5 µM (inactive); with A549 it was > 100 µM (inactive); in the test with 786-0, 24.9 µM (inactive); in the test on CAKI-1, 66.7 µM (inactive); in the test on SR, 0.318 µM (active); in the test on K562, 41.1 µM (inactive). Moreover, the GI50 in the test with SNB-19 was 44.3 µM (inactive); in the test on OVCAR-3, 33 µM (inactive).
`NC(=O)N(O)c1cccc(Br)c1`: the GI50 with U-251, in the test with SK-MEL-28, in the test on A498, with OVCAR-8, in the test with HL-60 and in the test with NCI-H522 was > 100 µM (inactive) throughout. Moreover, the GI50 with TK-10, in the test on NCI/ADR-RES, with NCI-H226, in the test on COLO 205, with MDA-MB-231 and with OVCAR-5 was > 100 µM (inactive) each time. For the same molecule, the GI50 in the test on NCI-H460, in the test with A549, in the test on 786-0, in the test with CAKI-1, in the test with SR and with K562 was > 100 µM (inactive) in each case. The GI50 in the test on SNB-19 and in the test on OVCAR-3 was > 100 µM (inactive) each time.
Turning to `COc1cc(C/N=c2/nc(N(C)C)ss2)cc(OC)c1OC`, the GI50 in the test with U-251 was > 10 µM (inactive); with SK-MEL-28 it was > 7.31 µM (inactive); in the test on A498 it was > 10 µM (inactive); in the test with OVCAR-8, > 4.99 µM (inactive); in the test on HL-60, 1.8 µM (inactive); in the test on NCI-H522, > 10 µM (inactive). Besides, the GI50 was > 10 µM (inactive) in the test with TK-10; > 10 µM (inactive) in the test on NCI/ADR-RES; > 10 µM (inactive) in the test on NCI-H226; > 10 µM (inactive) with COLO 205; > 10 µM (inactive) with MDA-MB-231; 3.37 µM (inactive) with OVCAR-5. Also, the GI50 in the test on NCI-H460 is > 10 µM (inactive); in the test with A549, > 10 µM (inactive); with 786-0, 3.24 µM (inactive); in the test on CAKI-1, > 10 µM (inactive); with SR it was 0.358 µM (active); in the test with K562, 1.46 µM (inactive). Also, the GI50 with SNB-19 and in the test with OVCAR-3 was > 10 µM (inactive) throughout.
As to `COC(c1ccc(C(C)(C)C)cc1)(c1ccc(C(C)(C)C)cc1)c1ccc(C(C)(C)C)cc1`, the GI50 in the test with U-251, with SK-MEL-28, with A498, in the test with OVCAR-8, in the test on HL-60 and with NCI-H522 was > 100 µM (inactive) throughout. In addition, the GI50 in the test on TK-10, in the test on NCI/ADR-RES, in the test on NCI-H226, in the test with COLO 205, in the test on MDA-MB-231 and with OVCAR-5 was > 100 µM (inactive) each time. For the same molecule, the GI50 in the test on NCI-H460, in the test on A549, in the test with 786-0, with CAKI-1, with SR and with K562 was > 100 µM (inactive) throughout. Besides, the GI50 in the test on SNB-19 and in the test with OVCAR-3 was > 100 µM (inactive) in each case.
Turning to `COc1ccc(-c2cc(-c3ccccc3)[nH]c(=S)c2C#N)cc1`, the GI50 with U-251 was 25.8 µM (inactive); in the test with SK-MEL-28, 20 µM (inactive); with A498, 15.3 µM (inactive); with OVCAR-8 it was 29.8 µM (inactive); in the test on HL-60, 46.8 µM (inactive); in the test with NCI-H522, 25.5 µM (inactive). In addition, the GI50 with TK-10 was 76.7 µM (inactive); in the test on NCI/ADR-RES it was 39.1 µM (inactive); in the test with NCI-H226, 31.4 µM (inactive); in the test on COLO 205, > 10 µM (inactive); in the test on MDA-MB-231 it was 32.4 µM (inactive); with OVCAR-5, 62.1 µM (inactive). In addition, the GI50 was 25.5 µM (inactive) in the test with NCI-H460; 18.8 µM (inactive) in the test on A549; 27.2 µM (inactive) in the test with 786-0; 61 µM (inactive) with CAKI-1; 32.6 µM (inactive) with SR; 22.8 µM (inactive) in the test with K562. Further, the GI50 in the test with SNB-19 was 40.4 µM (inactive); in the test with OVCAR-3 it was 11.9 µM (inactive).
In the case of `COc1ccccc1/C=C1\CCC(CN2CCOCC2)C1=O` (stereo not given), the GI50 is 18.7 µM (inactive) in the test with U-251; 15.5 µM (inactive) in the test on SK-MEL-28; 18.2 µM (inactive) in the test with A498; 5.43 µM (inactive) in the test with OVCAR-8; 2.12 µM (inactive) in the test on HL-60; 1.77 µM (inactive) in the test with NCI-H522. Moreover, the GI50 is 3.49 µM (inactive) in the test on TK-10; 8.95 µM (inactive) with NCI/ADR-RES; 16.9 µM (inactive) in the test with NCI-H226; 4.47 µM (inactive) with COLO 205; 3.68 µM (inactive) in the test on MDA-MB-231; 18.4 µM (inactive) in the test on OVCAR-5. Moreover, the GI50 is 18.2 µM (inactive) with NCI-H460; 21.9 µM (inactive) in the test on A549; 3.02 µM (inactive) in the test with 786-0; 17.3 µM (inactive) in the test on CAKI-1; 1.74 µM (inactive) with SR; 2.81 µM (inactive) in the test with K562. In addition, the GI50 is 9.55 µM (inactive) in the test on SNB-19 and 5.57 µM (inactive) in the test with OVCAR-3.
Consider `CN(C)CCCn1c2ccccc2c2cnccc21`, for which the GI50 with U-251 was 39.1 µM (inactive); in the test with SK-MEL-28 it was 48.9 µM (inactive); with A498, 38.5 µM (inactive); in the test with OVCAR-8, 55.3 µM (inactive); in the test with HL-60 it was 23.6 µM (inactive); in the test on NCI-H522, 23.8 µM (inactive). Besides, the GI50 in the test with TK-10 was 26.8 µM (inactive); in the test on NCI/ADR-RES, 36.1 µM (inactive); in the test with NCI-H226, 24.1 µM (inactive); with COLO 205, 14.6 µM (inactive); with MDA-MB-231, 30.8 µM (inactive); in the test with OVCAR-5, 38.4 µM (inactive). Besides, the GI50 is 23.9 µM (inactive) in the test with NCI-H460; 33.6 µM (inactive) in the test with A549; 27.7 µM (inactive) in the test with 786-0; 38.7 µM (inactive) in the test on CAKI-1; 19.2 µM (inactive) with SR; 26.2 µM (inactive) in the test on K562. Also, the GI50 is 44.9 µM (inactive) with SNB-19 and 42.9 µM (inactive) in the test on OVCAR-3.
